Data as given in patent publication US8580965B2, “Substituted sulfonamide compounds” (Gruenenthal GmbH, priority 2006, dated 2013).
Counter-ions that a name gives are not always drawn.

Assays:
[1] = molecular target: T1, human B1R receptor (bradykinin 1 receptor) (Homo sapiens, UniProt P46663); experiment: FLIPR Ca2+ assay (Fluo-4) on CHO K1 cells stably transfected with the human B1R gene; % activation and % inhibition at 10 μM; format: cell-based; settings: CHO K1 hB1R cells, Ca2+ inflow after 0.5 nM Lys-Des-Arg9-bradykinin; for inhibition at 10 µM: CHO-K1, test substance 10 μM, read-out: B1R antagonism, human [10 μM] % inhibition
T1 construct: host or cells: CHO K1 cells (hB1R cells)
T1 sequence (P46663 1-353): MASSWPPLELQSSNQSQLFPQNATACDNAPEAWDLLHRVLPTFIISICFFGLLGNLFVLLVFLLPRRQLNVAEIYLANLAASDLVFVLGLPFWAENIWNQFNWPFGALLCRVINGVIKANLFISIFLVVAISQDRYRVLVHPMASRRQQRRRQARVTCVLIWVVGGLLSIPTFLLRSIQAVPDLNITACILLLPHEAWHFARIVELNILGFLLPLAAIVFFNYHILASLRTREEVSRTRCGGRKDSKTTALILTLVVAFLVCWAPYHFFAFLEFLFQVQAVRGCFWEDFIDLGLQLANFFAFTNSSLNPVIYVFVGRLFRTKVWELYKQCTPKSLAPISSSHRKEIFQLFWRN
Outline: (§1)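 Fluo-4 Ca2+ flux on FLIPR in stable hB1R or rB1R CHO K1 lines, two additions. Agonism: 10 µM compound versus 0.5 nM Lys-Des-Arg9-BK (human) or 100 nM Des-Arg9-BK (rat); antagonism: same agonists applied 10 min later, suppression expressed against maximum achievable inhibition.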

[2] = molecular target: T2, B1R receptor of the rat (bradykinin 1 receptor) (Rattus norvegicus, UniProt P97583); experiment: FLIPR Ca2+ assay (Fluo-4) on CHO K1 cells stably transfected with the B1R gene of the rat; % activation and % inhibition at 10 μM; format: cell-based; settings: CHO K1 rB1R cells, Ca2+ inflow after 100 nM Des-Arg9-bradykinin; for inhibition at 10 µM: CHO-K1, test substance 10 μM, read-out: B1R antagonism, rat [10 μM] % inhibition
T2 construct: host or cells: CHO K1 cells (rB1R cells)
T2 sequence (P97583 1-337): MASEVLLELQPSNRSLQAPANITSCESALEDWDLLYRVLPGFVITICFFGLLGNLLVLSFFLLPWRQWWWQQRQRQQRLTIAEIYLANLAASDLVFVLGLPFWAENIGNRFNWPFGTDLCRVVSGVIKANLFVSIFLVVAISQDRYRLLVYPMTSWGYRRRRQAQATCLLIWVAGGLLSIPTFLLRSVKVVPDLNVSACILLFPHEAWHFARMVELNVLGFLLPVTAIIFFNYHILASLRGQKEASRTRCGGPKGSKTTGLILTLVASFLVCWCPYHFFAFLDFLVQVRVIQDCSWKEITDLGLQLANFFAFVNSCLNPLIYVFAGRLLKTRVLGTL
Outline: as §1

[3] = system: formalin-induced nociceptive reaction (phase 2); experiment: Formalin test mouse (phase 2, chronic pain component); format: in vivo; settings: phase 2 (21 to 24 min after formalin), i.v., 10 mg/kg, 5 min before formalin, change in percent compared with vehicle control
Method: The formalin test (Dubuisson, D. and Dennis, S. G., 1977, Pain, 4, 161-174) represents a model for both acute and chronic pain. By means of a single formalin injection into the dorsal side of a rear paw, a biphasic nociceptive reaction is induced in freely mobile test animals; the reaction is detected by observing three behavior patterns which are clearly distinguishable from one another. The reaction is two-phase: phase 1=immediate reaction (duration up to 10 min., shaking of the paw, licking), phase 2=late reaction (after a rest phase; likewise shaking of the paw, licking; duration up to 60 min.). […] In the studies described here, the chronic pain component (phase 2) has been evaluated.
Formalin in a volume of 20 μl and a concentration of 1% is administered subcutaneously into the dorsal side of the right rear paw of each animal. The specific changes in behavior, such as lifting, shaking or licking of the paw (score 3, Dubuisson & Dennis, 1977), are observed and recorded in the observation period of 21 to 24 min following the formalin injection.
The behavior of the animals after administration of the substance (n=10 per dose of substance) was compared with a control group which received vehicle (n=10). Based on the quantification of the pain behavior, the activity of the test substance in the formalin test was determined as the change, in percent, compared with the control. […]

[4] = test substance 10 μM, hydrochloride

inhibition at 10 µM [1]	inhibition at 10 µM [2]	Compound	B1R antagonism, human [10 μM] % inhibition [1, 4]	B1R antagonism, rat [10 μM] % inhibition [2, 4]	Substance action: antinociception [3]
		COc1cc(C)c(S(=O)(=O)N2CCCCC2COCC(=O)N2CCC(O)(c3cccnc3)CC2)c(C)c1 (stereo not drawn) [Example 87, 1-(4′-hydroxy-3′,4′,5′,6′-tetrahydro-2′H-[3,4′]bipyridinyl-1′-yl)-2-[1-(4-methoxy-2,6-dimethyl-phenylsulfonyl)-piperidin-2-ylmethoxy]-ethanone; hydrochloride]	101.8%	101.93%	23% antinociception
28%	1.79%	O=C(COC1CCN(S(=O)(=O)c2ccc(Cl)cc2Cl)C1)N1CCC(O)(c2ccccn2)CC1 (stereo not drawn) [Example 17, 2-[1-(2,4-dichloro-phenylsulfonyl)-pyrrolidin-3-yloxy]-1-(4′-hydroxy-3′,4′,5′,6′-tetrahydro-2′H-[2,4′]bipyridinyl-1′-yl)-ethanone]			
102%	99.6%	COc1cc(C)c(S(=O)(=O)N2CCCCC2COCC(=O)N2CCC(O)(c3ccccn3)CC2)c(C)c1 (stereo not drawn) [Example 138, 1-(4-hydroxy-4-(pyridin-2-yl)piperidin-1-yl)-2-((1-(4-methoxy-2,6-dimethylphenylsulfonyl)piperidin-2-yl)methoxy)ethanone]			
47.3%	70.7%	O=C(COCC1Cc2ccccc2CN1S(=O)(=O)c1ccc(Cl)cc1Cl)N1CCC(O)(c2ccc(Cl)cc2)CC1 (stereo not drawn) [Example 79, 1-(4-(4-chlorophenyl)-4-hydroxypiperidin-1-yl)-2-((2-(2,4-dichlorophenylsulfonyl)-1,2,3,4-tetrahydroisoquinolin-3-yl)methoxy)ethanone]			
13%	72.4%	O=C(COCC1CCCN1S(=O)(=O)c1cc(Cl)sc1Cl)N1CCC(O)(Cc2ccccc2)CC1 (stereo not drawn) [Example 226, 1-(4-benzyl-4-hydroxypiperidin-1-yl)-2-((1-(2,5-dichlorothiophen-3-ylsulfonyl)pyrrolidin-2-yl)methoxy)ethanone]			
6.86%	17.4%	Cc1cc(C)c(S(=O)(=O)N2CCC(OCC(=O)N3CCC(O)(c4ccccn4)CC3)C2)c(C)c1 (stereo not drawn) [Example 30, 1-(4′-hydroxy-3′,4′,5′,6′-tetrahydro-2′H-[2,4′]bipyridinyl-1′-yl)-2-[1-(2,4,6-trimethyl-phenylsulfonyl)-pyrrolidin-3-yloxy]-ethanone]			
100%	57.1%	COc1cc(C)c(S(=O)(=O)N(C)CCCCC(=O)N2CCC(O)(c3cccnc3)CC2)c(C)c1 [Example 121, N-(5-(4-hydroxy-4-(pyridin-3-yl)piperidin-1-yl)-5-oxopentyl)-4-methoxy-N,2,6-trimethylphenylsulfonamide]			
106%	101%	COc1cc(C)c(S(=O)(=O)N2CCCCC2COCC(=O)N2CCC(O)(c3cccs3)CC2)c(C)c1 (stereo not drawn) [Example 85, 1-(4-hydroxy-4-thiophen-2-yl-piperidin-1-yl)-2-[1-(4-methoxy-2,6-dimethyl-phenylsulfonyl)-piperidin-2-ylmethoxy]-ethanone]			
99.7%	95.8%	Cc1cc(Cl)cc(Cl)c1S(=O)(=O)N(C)CCOCC(=O)N1CCC(O)(c2ccc(Cl)cc2)CC1 [Example 104, 2,4-dichloro-N-(2-(2-(4-(4-chlorophenyl)-4-hydroxypiperidin-1-yl)-2-oxoethoxy)ethyl)-N,6-dimethylphenylsulfonamide]			
56.2%	86.4%	Cc1ccc(F)cc1S(=O)(=O)N(C)CCOCC(=O)N1CCC(O)(c2ccc(Cl)cc2)CC1 [Example 61, N-(2-(2-(4-(4-chlorophenyl)-4-hydroxypiperidin-1-yl)-2-oxoethoxy)ethyl)-5-fluoro-N,2-dimethylphenylsulfonamide]			
99.8%	35.2%	COc1cc(C)c(S(=O)(=O)N2CCC(OCC(=O)N3CCC(O)(Cc4ccccc4)CC3)C2)c(C)c1C (stereo not drawn) [Example 7, 1-(4-benzyl-4-hydroxy-piperidin-1-yl)-2-[1-(4-methoxy-2,3,6-trimethyl-phenylsulfonyl)-pyrrolidin-3-yloxy]-ethanone]			
-5.73%	7.14%	O=C(COCCN1CCN(S(=O)(=O)c2ccccc2)CC1)N1CCC(O)(c2ccncc2)CC1 [Example 49, 2-[2-(4-phenylsulfonyl-piperazin-1-yl)-ethoxy]-1-(4-hydroxy-3,4,5,6-tetrahydro-2H-[4,4′]bipyridinyl-1-yl)-ethanone]			
101%	98.8%	COc1cc(C)c(S(=O)(=O)N2Cc3ccccc3C[C@H]2COCC(=O)N2CCC(O)(c3cccnc3)CC2)c(C)c1 [Example 128, (S)-1-(4-hydroxy-4-(pyridin-3-yl)piperidin-1-yl)-2-((2-(4-methoxy-2,6-dimethylphenylsulfonyl)-1,2,3,4-tetrahydroisoquinolin-3-yl)methoxy)ethanone]			
97.8%	86.9%	Cc1cc(S(=O)(=O)N(C)CCOCC(=O)N2CCC(O)(c3ccc(Br)cc3)CC2)c(C)cc1Cl [Example 151, N-(2-(2-(4-(4-bromophenyl)-4-hydroxypiperidin-1-yl)-2-oxoethoxy)ethyl)-4-chloro-N,2,5-trimethylphenylsulfonamide]			
98.8%	96.4%	Cc1cc(S(=O)(=O)N(C)CCOCC(=O)N2CCC(O)(c3cccc(C(F)(F)F)c3)CC2)c(C)cc1Cl [Example 154, 4-chloro-N-(2-(2-(4-hydroxy-4-(3-(trifluoromethyl)phenyl)piperidin-1-yl)-2-oxoethoxy)ethyl)-N,2,5-trimethylphenylsulfonamide]			
13.8%	31.1%	O=C(COCC1Cc2ccccc2CN1S(=O)(=O)c1ccccc1)N1CCC(O)(c2cccnc2)CC1 (stereo not drawn) [Example 90, 2-(2-phenylsulfonyl-1,2,3,4-tetrahydro-isoquinolin-3-ylmethoxy)-1-(4′-hydroxy-3′,4′,5′,6′-tetrahydro-2′H-[3,4′]bipyridinyl-1′-yl)-ethanone]			
41.5%	104%	O=C(COCC1CCCN1S(=O)(=O)c1c(Cl)cc(C(F)(F)F)cc1Cl)N1CCC(O)(c2ccc(Br)cc2)CC1 (stereo not drawn) [Example 167, 1-(4-(4-bromophenyl)-4-hydroxypiperidin-1-yl)-2-((1-(2,6-dichloro-4-(trifluoromethyl)phenylsulfonyl)pyrrolidin-2-yl)methoxy)ethanone]			
73.6%	94.2%	CN(CCOCC(=O)N1CCC(O)(c2cccc(C(F)(F)F)c2)CC1)S(=O)(=O)c1cc(Cl)sc1Cl [Example 262, 2,5-dichloro-N-(2-(2-(4-hydroxy-4-(3-(trifluoromethyl)phenyl)piperidin-1-yl)-2-oxoethoxy)ethyl)-N-methylthiophene-3-sulfonamide]			
103%	100%	COc1cc(C)c(S(=O)(=O)N2CCCCC2COCC(=O)N2CCC(O)(c3cccc(F)c3)CC2)c(C)c1 (stereo not drawn) [Example 142, 1-(4-(3-fluorophenyl)-4-hydroxypiperidin-1-yl)-2-((1-(4-methoxy-2,6-dimethylphenylsulfonyl)piperidin-2-yl)methoxy)ethanone]			
